Results published in US20070219210A1, “Amidopyrazole Derivative” (Daiichi Pharmaceutical Co., LTD., priority 2003, published 2007).
Values belong to the compound of their own block, whether it stands above or below them.

Assays:
[1] = system: collagen-induced platelet coagulation; assay: Inhibitory effect on collagen-induced platelet coagulation in platelet rich plasma; assay type: cell-based; conditions: human platelet rich plasma, 37° C., coagulation induced with collagen; read-out: Inhibition of collagen-induced platelet coagulation, IC50
Experimental: Human blood was collected by using 1/10 volume of 3.13% sodium citrate as an anticoagulant, and the blood was centrifuged at 180 g for 10 minutes to separate platelet rich plasma (PRP), which was the upper layer. After collecting the upper layer PRP, the remaining lower layer was centrifuged at 1600 g for 10 minutes, and platelet poor plasma (PPP) in the upper layer was collected. 1 μl solution of the compound of the Examples was added to 200 μl of the PRP, and after allowing the sample to stand at 37° C. for 2 minutes, 2 μl of collagen was added in order to induce platelet coagulation. Platelet coagulation rate was measured with PAM-12C (SSR Engineering).

Cyclooxygenase-1 (COX-1) = target: T1, Cyclooxygenase-1 (COX-1) (Ovis aries, UniProt P05979); assay: COX Inhibitor Screening Assay Kit (Cayman), PGF2α by ELISA, COX-1; assay type: biochemical; conditions: compound at 50 μm; relative to PGF2α produced without compound (100%)
T1 construct: purchased Cayman Chemical Company 560101
T1 sequence (P05979 25-600): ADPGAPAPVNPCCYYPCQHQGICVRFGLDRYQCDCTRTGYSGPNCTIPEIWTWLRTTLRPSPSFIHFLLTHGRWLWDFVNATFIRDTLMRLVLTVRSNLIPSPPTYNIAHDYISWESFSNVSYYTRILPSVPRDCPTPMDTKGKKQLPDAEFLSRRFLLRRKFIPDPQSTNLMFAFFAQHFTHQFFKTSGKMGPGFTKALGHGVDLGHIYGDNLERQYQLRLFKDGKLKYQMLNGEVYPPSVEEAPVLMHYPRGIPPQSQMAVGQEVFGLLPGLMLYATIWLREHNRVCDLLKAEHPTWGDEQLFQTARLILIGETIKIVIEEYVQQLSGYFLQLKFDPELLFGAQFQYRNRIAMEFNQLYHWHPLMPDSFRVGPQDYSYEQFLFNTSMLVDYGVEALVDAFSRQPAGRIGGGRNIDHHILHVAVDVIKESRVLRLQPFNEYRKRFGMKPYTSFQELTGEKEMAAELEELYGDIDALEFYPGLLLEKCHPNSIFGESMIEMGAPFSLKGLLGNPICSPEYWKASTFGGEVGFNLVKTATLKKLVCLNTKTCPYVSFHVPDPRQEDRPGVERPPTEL
Experimental: (§1) Inhibitory activity against COX-1 and COX-2 of the compounds produced in the Examples was measured by using COX Inhibitor Screening Assay Kit (Catalog Nos. 560101 and 560121) purchased from Cayman Chemical Company.
(§2) Before starting the measurement, reaction buffer, heme, arachidonic acid, SnCl2, EIA buffer, washing buffer, prostaglandin (PG) screening EIA standard, PG screening acetylcholine esterase (AchE), tracer (chromogenic enzyme HRP conjugate), and PC screening EIA antiserum were prepared ready for use.
(§3) The reaction mixture containing the compound of the Examples (50 μM) and COX-1 or COX-2 was allowed to stand at 37° C. or 10 minutes, and after adding 10 μl of arachidonic acid, the solution was again allowed to stand at 37° C. for 2 minutes. After the reaction, the reaction was terminated by adding 50 μl of 1N-hydrochloric acid, and 100 μl solution of SnCl2 was added, and the reaction mixture was allowed to stand at room temperature for 5 minutes.
(§4) 50 μl of antiserum (rabbit anti-PGF2α antibody) was placed in the wells of 96 well plate that had been coated with mouse anti-rabbit IgG and 50 μl of the 2000-fold diluted PGF2α-containing liquid described above and 50 μl of AchE tracer were added to the well in this order, and the mixture was allowed to stand at room temperature for 18 hours. The wells were washed 5 times with the washing buffer to remove an excessive AchE tracer, and 200 μl of Ellman reagent was added. After leaving the plate in a dark room for 60 minutes, absorbance was measured at 405 nm.
(§5) A calibration curve was obtained by using the PG screening EIA standard, and the amount of PGF2α produced was determined from the absorption. Inhibitory rate at 50 μM of the compound of the Examples against COX-1 or COX-2 was calculated.
(§6) It is to be noted that the inhibitory rate was calculated in relation to the amount of the PGF2α produced by the reaction liquid free from the compounds of the Examples, which was taken 100%.

Cyclooxygenase-2 (COX-2) = target: T2, Cyclooxygenase-2 (COX-2) (Homo sapiens, UniProt P35354); assay: COX Inhibitor Screening Assay Kit (Cayman), PGF2α by ELISA, COX-2; assay type: biochemical; conditions: compound at 50 μm; relative to PGF2α produced without compound (100%)
T2 construct: purchased Cayman Chemical Company 560121
T2 sequence (P35354 18-604): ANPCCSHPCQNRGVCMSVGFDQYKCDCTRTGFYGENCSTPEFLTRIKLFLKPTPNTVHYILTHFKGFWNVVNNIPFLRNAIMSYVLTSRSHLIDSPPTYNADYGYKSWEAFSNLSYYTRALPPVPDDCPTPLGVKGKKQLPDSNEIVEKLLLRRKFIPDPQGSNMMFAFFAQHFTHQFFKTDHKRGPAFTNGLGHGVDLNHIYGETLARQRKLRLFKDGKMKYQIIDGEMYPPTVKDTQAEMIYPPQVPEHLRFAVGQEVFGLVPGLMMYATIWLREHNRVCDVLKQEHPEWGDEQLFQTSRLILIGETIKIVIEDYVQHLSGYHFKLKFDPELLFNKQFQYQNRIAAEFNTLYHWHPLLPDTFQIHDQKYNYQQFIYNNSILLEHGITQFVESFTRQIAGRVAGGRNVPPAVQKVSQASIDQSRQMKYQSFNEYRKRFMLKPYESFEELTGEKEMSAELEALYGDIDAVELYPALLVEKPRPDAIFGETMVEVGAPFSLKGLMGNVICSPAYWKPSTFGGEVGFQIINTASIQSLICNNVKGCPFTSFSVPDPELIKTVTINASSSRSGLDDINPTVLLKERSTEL
Experimental: as §1, §2, §3, §4, §5, §6

Structure (SMILES): CC(C)(C)NC(=O)c1cc(-c2ccc(CNS(C)(=O)=O)cn2)n(-c2cccnc2)n1 [Example 137, N-tert-Butyl-5-[5-(methanesulfonylamino)methyl-2-pyridyl]-1-(3-pyridyl)-1H-pyrazole-3-carboxamide]
IC50 [1]: 230 nM
Inhibitory effect against COX-1 at 50 μm (% inhibition) (Cyclooxygenase-1 (COX-1)): −5.1 % inhibition

Structure (SMILES): COc1ccc(-n2nc(C(=O)NC3CCCC3)cc2-c2ccccn2)nn1 [Example 56, N-Cyclopentyl-1-(6-methoxy-3-pyridazinyl)-5-(2-pyridyl)-1H-pyrazole-3-carboxamide]
IC50 [1]: 92 nM
Inhibitory effect against COX-1 at 50 μm (% inhibition) (Cyclooxygenase-1 (COX-1)): −1.2 % inhibition
Inhibitory effect against COX-2 at 50 μm (% inhibition) (Cyclooxygenase-2 (COX-2)): −1.7 % inhibition

Structure (SMILES): CC(C)(CF)NC(=O)c1cc(-c2cnc(N)cn2)n(-c2cccnc2)n1 [Example 113, N-(2-Fluoro-1,1-dimethylethyl)-5-(5-amino-2-pyrazinyl)-1-(3-pyridyl)-1H-pyrazole-3-carboxamide]
IC50 [1]: 150 nM
Inhibitory effect against COX-1 at 50 μm (% inhibition) (Cyclooxygenase-1 (COX-1)): −2.8 % inhibition

Structure (SMILES): CC(C)(C)NC(=O)c1cc(-c2cnc(N)cn2)n(-c2cccnc2)n1 [Example 95, N-tert-Butyl-5-(5-amino-2-pyrazinyl)-1-(3-pyridyl)-1H-pyrazole-3-carboxamide]
IC50 [1]: 160 nM
Inhibitory effect against COX-1 at 50 μm (% inhibition) (Cyclooxygenase-1 (COX-1)): −9.1 % inhibition

Structure (SMILES): CC(C)(C)NC(=O)c1cc(-c2ccc(O)cn2)n(-c2cccnc2)n1 [Example 22, N-tert-Butyl-5-(5-hydroxy-2-pyridyl)-1-(3-pyridyl)-1H-pyrazole-3-carboxamide]
IC50 [1]: 210 nM
Inhibitory effect against COX-1 at 50 μm (% inhibition) (Cyclooxygenase-1 (COX-1)): 0.8 % inhibition
Inhibitory effect against COX-2 at 50 μm (% inhibition) (Cyclooxygenase-2 (COX-2)): 4.2 % inhibition

Structure (SMILES): COCC(C)(C)NC(=O)c1cc(-c2ccccn2)n(-c2ccc(OC)nn2)n1 [Example 40, N-(2-Methoxy-1,1-dimethylethyl)-1-(6-methoxy-3-pyridazinyl)-5-(2-pyridyl)-1H-pyrazole-3-carboxamide]
IC50 [1]: 65 nM
Inhibitory effect against COX-1 at 50 μm (% inhibition) (Cyclooxygenase-1 (COX-1)): 72 % inhibition
Inhibitory effect against COX-2 at 50 μm (% inhibition) (Cyclooxygenase-2 (COX-2)): 14.8 % inhibition

Structure (SMILES): COc1ccc(-n2nc(C(=O)NC(C)(C)C)cc2-c2cnccn2)cn1 [Example 13, N-tert-Butyl-1-(6-methoxy-3-pyridyl)-5-(2-pyrazinyl)-1H-pyrazole-3-carboxamide]
IC50 [1]: 18 nM
Inhibitory effect against COX-1 at 50 μm (% inhibition) (Cyclooxygenase-1 (COX-1)): 13.9 % inhibition
Inhibitory effect against COX-2 at 50 μm (% inhibition) (Cyclooxygenase-2 (COX-2)): 9.2 % inhibition

Structure (SMILES): COc1cnc(-n2nc(C(=O)NC(C)(C)C)cc2-c2ccccn2)cn1 [Example 15, N-tert-Butyl-1-(5-methoxy-2-pyrazinyl)-5-(2-pyridyl)-1H-pyrazole-3-carboxamide]
IC50 [1]: 29 nM
Inhibitory effect against COX-1 at 50 μm (% inhibition) (Cyclooxygenase-1 (COX-1)): 39.5 % inhibition
Inhibitory effect against COX-2 at 50 μm (% inhibition) (Cyclooxygenase-2 (COX-2)): 6.9 % inhibition

Structure (SMILES): Cc1ccc(-n2nc(C(=O)NC(C)(C)C)cc2-c2ccccn2)cn1 [Example 8, N-tert-Butyl-1-(6-methyl-3-pyridyl)-5-(2-pyridyl)-1H-pyrazole-3-carboxamide]
IC50 [1]: 18 nM
Inhibitory effect against COX-1 at 50 μm (% inhibition) (Cyclooxygenase-1 (COX-1)): −3.3 % inhibition
Inhibitory effect against COX-2 at 50 μm (% inhibition) (Cyclooxygenase-2 (COX-2)): 3.9 % inhibition

IC50 [1]: 54 nM
Structure (SMILES): CC(C)(C)NC(=O)c1cc(-c2ccc(F)cn2)n(-c2cccnc2)n1 [Example 85, N-tert-Butyl-5-(5-fluoro-2-pyridyl)-1-(3-pyridyl)-1H-pyrazole-3-carboxamide]

Structure (SMILES): COc1ccc(-n2nc(C(=O)NC(C)(C)C)cc2-c2cc(CO)ccn2)cn1 [Example 4, N-tert-Butyl-5-(4-hydroxymethyl-2-pyridyl)-1-(6-methoxy-3-pyridyl)-1H-pyrazole-3-carboxamide]
IC50 [1]: 120 nM
Inhibitory effect against COX-1 at 50 μm (% inhibition) (Cyclooxygenase-1 (COX-1)): −1.5 % inhibition
Inhibitory effect against COX-2 at 50 μm (% inhibition) (Cyclooxygenase-2 (COX-2)): −1.9 % inhibition

Structure (SMILES): COC(=O)NCc1ccc(-c2cc(C(=O)NC(C)(C)C)nn2-c2cccnc2)nc1 [Example 139, Methyl {6-[5-(N-tert-butylcarbamoyl)-2-(3-pyridyl)-2H-pyrazol-3-yl]-3-pyridylmethyl}carbamate]
IC50 [1]: 71 nM
Inhibitory effect against COX-1 at 50 μm (% inhibition) (Cyclooxygenase-1 (COX-1)): −25.8 % inhibition

IC50 [1]: 100 nM
Structure (SMILES): Cc1ccc(-n2nc(C(=O)NC(C)(C)C)cc2-c2cn(C)cn2)cn1 [Example 122, N-tert-Butyl-5-(1-methyl-1H-imidazol-4-yl)-1-(6-methyl-3-pyridyl)-1H-pyrazole-3-carboxamide]

Structure (SMILES): CC(=O)NCc1ccc(-c2cc(C(=O)NC(C)(C)C)nn2-c2cccnc2)nc1 [Example 138, N-tert-Butyl-5-[5-(acetylamino)methyl-2-pyridyl]-1-(3-pyridyl)-1H-pyrazole-3-carboxamide]
IC50 [1]: 160 nM
Inhibitory effect against COX-1 at 50 μm (% inhibition) (Cyclooxygenase-1 (COX-1)): 0.7 % inhibition

IC50 [1]: 20 nM
Structure (SMILES): COc1ccc(-n2nc(C(=O)N(C)C)cc2-c2ccn(C)c2)cn1 [Example 116, N,N-Dimethyl-1-(6-methoxy-3-pyridyl)-5-(1-methyl-1H-pyrrol-3-yl)-1H-pyrazole-3-carboxamide]

Structure (SMILES): CC(C)(C)NC(=O)c1cc(-c2ccc(CN)cn2)n(-c2ccccc2)n1 [Example 74, N-tert-Butyl-5-(5-aminomethyl-2-pyridyl)-1-phenyl-1H-pyrazole-3-carboxamide]
IC50 [1]: 170 nM
Inhibitory effect against COX-1 at 50 μm (% inhibition) (Cyclooxygenase-1 (COX-1)): 38.8 % inhibition

Structure (SMILES): Cc1ccc(-c2cc(C(=O)NC(C)(C)CO)nn2-c2cccnc2)nc1 [Example 152, N-(2-Hydroxy-1,1-dimethylethyl)-5-(5-methyl-2-pyridyl)-1-(3-pyridyl)-1H-pyrazole-3-carboxamide]
IC50 [1]: 110 nM
Inhibitory effect against COX-1 at 50 μm (% inhibition) (Cyclooxygenase-1 (COX-1)): −8.7 % inhibition

IC50 [1]: 32 nM
Structure (SMILES): C#Cc1ccc(-c2cc(C(=O)NC(C)(C)CF)nn2-c2cccnc2)nc1 [Example 132, 5-(5-Ethynyl-2-pyridyl)-N-(2-fluoro-1,1-dimethylethyl)-1-(3-pyridyl)-1H-pyrazole-3-carboxamide]

Structure (SMILES): CC(C)(CF)NC(=O)c1cc(-c2ccc(N)cn2)n(-c2cccnc2)n1 [Example 98, N-(2-Fluoro-1,1-dimethylethyl)-5-(5-amino-2-pyridyl)-1(3-pyridyl)-1H-pyrazole-3-carboxamide]
IC50 [1]: 43 nM
Inhibitory effect against COX-1 at 50 μm (% inhibition) (Cyclooxygenase-1 (COX-1)): −20.4 % inhibition

Structure (SMILES): CC(C)(C)NC(=O)c1cc(-c2ccc(N)cn2)n(-c2cccnc2)n1 [Example 71]
IC50 [1]: 23.1 nM
Inhibitory effect against COX-1 at 50 μm (% inhibition) (Cyclooxygenase-1 (COX-1)): 7.9 % inhibition
